Experimental data taken from ChEMBL document CHEMBL1153292, “Atropisomeric small molecule Bcl-2 ligands: determination of bioactive conformation” (Bioorg Med Chem Lett, 2009).

Molecular target: Apoptosis regulator Bcl-2 (Homo sapiens, UniProt P10415)
Experiment: Inhibition of GST fused Bcl-2 binding to biotinylated 16 mer BH3 peptide by HTRF-LANCE assay

Chain of Apoptosis regulator Bcl-2 (P10415 whole entry, the tested form may be a part): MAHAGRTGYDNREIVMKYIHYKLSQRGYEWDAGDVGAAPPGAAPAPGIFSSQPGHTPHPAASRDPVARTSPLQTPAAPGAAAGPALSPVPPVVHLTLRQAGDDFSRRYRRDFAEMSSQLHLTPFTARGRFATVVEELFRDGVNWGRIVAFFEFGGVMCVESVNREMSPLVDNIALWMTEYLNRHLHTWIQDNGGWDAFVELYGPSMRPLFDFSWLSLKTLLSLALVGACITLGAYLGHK

IC50 [µM] | Structure (SMILES)
1.1 | Cc1cccc(-n2nc(C(=O)N(c3ccccc3)c3ccccc3)cc2C)c1C(=O)N1Cc2ccccc2C[C@@H]1CO (atropisomer aR; form 1)
0.042 | CCCCN(CCCC)C(=O)c1nn(-c2cccc(C)c2C(=O)N2Cc3ccccc3C[C@H]2CN)c(C)c1Cl
0.21 | Cc1cccc(-n2nc(C(=O)N(c3ccccc3)c3ccccc3)cc2C)c1C(=O)N1Cc2ccccc2C[C@H]1CO (atropisomer aS)
0.39 | Cc1cccc(-n2nc(C(=O)N(c3ccccc3)c3ccccc3)cc2C)c1C(=O)N1Cc2ccccc2C[C@@H]1CO (atropisomer aR; form 3)
0.175 | CCCCN(CCCC)C(=O)c1cc(C)n(-c2cccc(C)c2C(=O)N2Cc3ccccc3C[C@H]2CN)n1
6.1 | Cc1cccc(-n2nc(C(=O)N(c3ccccc3)c3ccccc3)cc2C)c1C(=O)N1Cc2ccccc2C[C@@H]1CO (atropisomer aR; form 2)
0.6 | Cc1cccc(-n2nc(C(=O)N(c3ccccc3)c3ccccc3)cc2C)c1C(=O)N1Cc2ccccc2CC1CO (configuration not stated)
